Active and inactive are the calls of the source. For most assays here, no stated cut-off is given here; in the data, actives have a measured IC50 and inactives only a lower limit.
What was measured:
Format in all cases: functional
Aurora kinase A = Aurora kinase A (Homo sapiens, UniProt O14965);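 further: value from the Navigating the Kinome kinase panel profiling, panel entry STK6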
Aurora kinase B = Aurora kinase B (Homo sapiens, UniProt Q96GD4)
[1] = molecular target: Vascular endothelial growth factor receptor 2 (Homo sapiens, UniProt P35968)
Sequence of Vascular endothelial growth factor receptor 2 (P35968 whole entry): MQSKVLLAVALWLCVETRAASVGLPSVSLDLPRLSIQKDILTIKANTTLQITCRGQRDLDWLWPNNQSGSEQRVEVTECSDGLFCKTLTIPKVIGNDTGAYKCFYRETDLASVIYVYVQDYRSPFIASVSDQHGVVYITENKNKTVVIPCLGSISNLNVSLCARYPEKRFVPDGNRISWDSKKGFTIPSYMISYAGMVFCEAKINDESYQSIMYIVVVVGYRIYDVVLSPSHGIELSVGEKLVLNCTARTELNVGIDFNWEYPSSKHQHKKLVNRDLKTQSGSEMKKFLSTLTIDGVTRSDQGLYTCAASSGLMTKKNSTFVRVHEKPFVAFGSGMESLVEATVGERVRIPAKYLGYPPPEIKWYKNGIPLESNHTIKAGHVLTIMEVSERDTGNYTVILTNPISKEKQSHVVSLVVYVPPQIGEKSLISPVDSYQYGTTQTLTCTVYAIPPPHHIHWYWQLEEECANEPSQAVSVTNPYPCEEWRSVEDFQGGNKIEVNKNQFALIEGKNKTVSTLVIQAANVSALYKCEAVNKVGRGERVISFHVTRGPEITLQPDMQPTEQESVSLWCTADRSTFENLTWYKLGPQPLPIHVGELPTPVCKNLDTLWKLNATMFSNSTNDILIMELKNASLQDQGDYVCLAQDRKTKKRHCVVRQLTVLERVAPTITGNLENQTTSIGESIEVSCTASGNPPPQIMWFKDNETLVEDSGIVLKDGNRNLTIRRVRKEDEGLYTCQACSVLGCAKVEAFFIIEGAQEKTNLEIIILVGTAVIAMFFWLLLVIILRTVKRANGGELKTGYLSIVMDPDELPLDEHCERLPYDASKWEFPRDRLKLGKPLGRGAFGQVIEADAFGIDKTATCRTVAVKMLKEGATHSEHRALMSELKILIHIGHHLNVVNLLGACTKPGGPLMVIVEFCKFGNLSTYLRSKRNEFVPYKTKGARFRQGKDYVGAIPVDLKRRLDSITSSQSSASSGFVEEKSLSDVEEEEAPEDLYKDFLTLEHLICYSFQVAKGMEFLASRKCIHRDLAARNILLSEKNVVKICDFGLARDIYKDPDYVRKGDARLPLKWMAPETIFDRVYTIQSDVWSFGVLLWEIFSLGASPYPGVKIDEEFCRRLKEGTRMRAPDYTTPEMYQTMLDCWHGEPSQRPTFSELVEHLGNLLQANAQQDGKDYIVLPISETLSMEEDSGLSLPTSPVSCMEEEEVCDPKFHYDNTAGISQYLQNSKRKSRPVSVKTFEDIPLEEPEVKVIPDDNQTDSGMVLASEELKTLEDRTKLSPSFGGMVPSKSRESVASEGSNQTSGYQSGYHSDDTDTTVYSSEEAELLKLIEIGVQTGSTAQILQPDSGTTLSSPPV

[2] = molecular target: T1, Sentrin-specific protease 8 (Homo sapiens, UniProt Q96LD8); experiment: inhibition of human SENP8 cleavage activity – biochemical, luminescence, SAR follow-up (AID 504501)
T1 sequence (Q96LD8 whole entry): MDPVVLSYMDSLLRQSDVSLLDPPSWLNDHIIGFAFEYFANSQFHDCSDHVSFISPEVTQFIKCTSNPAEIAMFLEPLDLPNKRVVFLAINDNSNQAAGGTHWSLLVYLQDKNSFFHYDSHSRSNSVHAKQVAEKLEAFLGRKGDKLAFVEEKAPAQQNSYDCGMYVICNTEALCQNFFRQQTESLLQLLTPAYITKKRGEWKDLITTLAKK

[3] = molecular target: T2, Sentrin-specific protease 6 (Homo sapiens, UniProt Q9GZR1); experiment: SAR Analysis of small molecule inhibitors of Sentrin-specific protease 6 (SENP6) using a Luminescent assay. [Related pubchem assays (depositor defined):AID2582, AID2599]
T2 sequence (Q9GZR1 whole entry): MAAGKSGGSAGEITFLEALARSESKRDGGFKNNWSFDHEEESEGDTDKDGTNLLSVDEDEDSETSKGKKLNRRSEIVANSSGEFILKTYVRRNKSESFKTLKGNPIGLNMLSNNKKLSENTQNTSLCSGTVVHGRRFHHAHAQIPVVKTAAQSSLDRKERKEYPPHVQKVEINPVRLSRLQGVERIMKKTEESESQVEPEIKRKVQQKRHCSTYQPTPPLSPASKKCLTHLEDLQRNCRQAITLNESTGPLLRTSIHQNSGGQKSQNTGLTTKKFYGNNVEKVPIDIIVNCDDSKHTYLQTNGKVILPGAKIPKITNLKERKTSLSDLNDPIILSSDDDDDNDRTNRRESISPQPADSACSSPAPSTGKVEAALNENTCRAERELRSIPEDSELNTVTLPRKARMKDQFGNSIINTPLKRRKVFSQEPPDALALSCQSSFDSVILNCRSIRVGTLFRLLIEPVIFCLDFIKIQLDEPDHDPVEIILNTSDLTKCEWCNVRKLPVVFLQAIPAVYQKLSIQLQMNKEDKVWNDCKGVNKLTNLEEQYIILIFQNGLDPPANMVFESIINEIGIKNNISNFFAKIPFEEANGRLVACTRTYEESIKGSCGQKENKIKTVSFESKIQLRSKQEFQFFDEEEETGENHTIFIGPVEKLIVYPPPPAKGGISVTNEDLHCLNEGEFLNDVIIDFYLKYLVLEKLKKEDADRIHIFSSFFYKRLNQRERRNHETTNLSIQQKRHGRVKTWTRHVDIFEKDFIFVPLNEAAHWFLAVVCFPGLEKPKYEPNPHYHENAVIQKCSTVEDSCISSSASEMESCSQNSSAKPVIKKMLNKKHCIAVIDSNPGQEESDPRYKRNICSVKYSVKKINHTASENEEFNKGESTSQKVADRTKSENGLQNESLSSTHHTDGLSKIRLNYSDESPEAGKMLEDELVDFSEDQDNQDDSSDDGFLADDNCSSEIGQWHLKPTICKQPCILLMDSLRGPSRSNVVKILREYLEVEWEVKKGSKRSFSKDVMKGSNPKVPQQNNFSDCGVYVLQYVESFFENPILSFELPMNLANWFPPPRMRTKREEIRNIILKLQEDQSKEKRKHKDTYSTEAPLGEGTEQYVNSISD

[4] = molecular target: T3, Sentrin-specific protease 7 (Homo sapiens, UniProt Q9BQF6); experiment: inhibition of human SENP7 cleavage activity – biochemical, luminescence, SAR follow-up (AID 504497)
T3 sequence (Q9BQF6 whole entry): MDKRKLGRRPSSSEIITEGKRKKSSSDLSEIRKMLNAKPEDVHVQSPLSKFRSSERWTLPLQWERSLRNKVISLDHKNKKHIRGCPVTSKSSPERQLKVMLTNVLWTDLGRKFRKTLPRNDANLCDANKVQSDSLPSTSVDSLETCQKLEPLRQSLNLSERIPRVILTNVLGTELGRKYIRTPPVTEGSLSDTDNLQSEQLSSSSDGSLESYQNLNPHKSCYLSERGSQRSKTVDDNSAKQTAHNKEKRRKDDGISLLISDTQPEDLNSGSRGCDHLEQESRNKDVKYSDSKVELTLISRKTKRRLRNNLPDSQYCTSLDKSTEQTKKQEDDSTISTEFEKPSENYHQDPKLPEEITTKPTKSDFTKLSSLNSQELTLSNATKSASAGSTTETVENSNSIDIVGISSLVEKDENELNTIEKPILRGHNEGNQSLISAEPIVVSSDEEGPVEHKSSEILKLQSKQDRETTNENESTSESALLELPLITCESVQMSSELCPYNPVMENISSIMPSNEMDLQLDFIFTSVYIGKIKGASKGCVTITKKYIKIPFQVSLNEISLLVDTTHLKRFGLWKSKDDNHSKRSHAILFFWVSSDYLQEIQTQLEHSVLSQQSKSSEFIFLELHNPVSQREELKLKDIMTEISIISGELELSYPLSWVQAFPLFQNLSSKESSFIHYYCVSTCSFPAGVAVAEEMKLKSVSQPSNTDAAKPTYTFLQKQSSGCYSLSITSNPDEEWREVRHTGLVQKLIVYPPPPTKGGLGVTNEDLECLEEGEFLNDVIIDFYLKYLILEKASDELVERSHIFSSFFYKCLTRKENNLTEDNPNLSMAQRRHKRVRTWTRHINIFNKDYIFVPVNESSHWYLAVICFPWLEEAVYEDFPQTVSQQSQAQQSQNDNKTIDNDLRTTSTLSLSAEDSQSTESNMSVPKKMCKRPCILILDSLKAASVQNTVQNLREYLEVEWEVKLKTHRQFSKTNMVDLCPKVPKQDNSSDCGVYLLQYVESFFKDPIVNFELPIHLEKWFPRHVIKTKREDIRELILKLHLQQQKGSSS

[5] = molecular target: T1, Sentrin-specific protease 8; experiment: inhibition of sentrin protease 8 – biochemical, luminescence, set 2, SAR follow-up (AID 588601)
[6] = molecular target: T3, Sentrin-specific protease 7; experiment: inhibition of human SENP7 cleavage activity – biochemical, luminescence, set 2, SAR follow-up (AID 588600)
Caspase-3 [7] = molecular target: T4, Caspase-3 (Homo sapiens, UniProt P42574); experiment: inhibition of recombinant caspase-3 activity – biochemical, luminescence, set 2, selectivity assay for SENP protease inhibitor project, SAR follow-up (AID 588599)
T4 sequence (P42574 whole entry): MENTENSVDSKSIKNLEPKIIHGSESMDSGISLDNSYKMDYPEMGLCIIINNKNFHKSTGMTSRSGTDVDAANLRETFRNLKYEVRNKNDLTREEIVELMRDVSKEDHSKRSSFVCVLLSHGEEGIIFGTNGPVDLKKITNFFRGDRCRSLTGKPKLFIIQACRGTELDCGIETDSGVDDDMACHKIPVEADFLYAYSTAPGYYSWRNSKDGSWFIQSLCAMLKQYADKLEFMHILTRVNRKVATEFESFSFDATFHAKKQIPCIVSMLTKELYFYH

Caspase-3 [8] = molecular target: T4, Caspase-3; experiment: SAR Analysis of small molecule inhibitors of Sentrin-specific proteases (SENPs) using a Caspase-3 Selectivity assay. [Related pubchem assays (depositor defined):AID2540, AID2599, AID434973, AID489001]
[9] = molecular target: T2, Sentrin-specific protease 6; experiment: inhibition of human SENP6 catalytic domain – biochemical, luminescence, set 2, SAR follow-up (AID 588598)
[10] = molecular target: Melanin-concentrating hormone receptor 1 (Homo sapiens, UniProt Q99705); experiment: Late-stage fluorescence-based counterscreen for antagonists of the G-protein coupled receptor 7 (GPR7): cell-based dose response assay to identify antagonists of the melanin-concentrating hormone receptor 1 (MCHR1) Set 6.
Sequence of Melanin-concentrating hormone receptor 1 (Q99705 whole entry): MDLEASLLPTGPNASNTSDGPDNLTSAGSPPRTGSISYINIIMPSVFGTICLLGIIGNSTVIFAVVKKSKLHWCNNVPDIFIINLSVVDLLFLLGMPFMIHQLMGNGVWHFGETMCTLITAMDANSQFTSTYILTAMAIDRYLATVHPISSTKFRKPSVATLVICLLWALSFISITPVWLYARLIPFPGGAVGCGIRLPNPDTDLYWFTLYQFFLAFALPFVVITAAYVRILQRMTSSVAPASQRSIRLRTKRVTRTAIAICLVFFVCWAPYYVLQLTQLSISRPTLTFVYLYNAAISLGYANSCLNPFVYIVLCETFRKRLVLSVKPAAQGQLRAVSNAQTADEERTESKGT

[11] = molecular target: T5, Neuropeptides B/W receptor type 1 (Homo sapiens, UniProt P48145); experiment: human NPBW1 receptor blockade, IC50 – cell-based, fluorescence, dose response, set 6, late-stage follow-up (AID 588583)
T5 sequence (P48145 whole entry): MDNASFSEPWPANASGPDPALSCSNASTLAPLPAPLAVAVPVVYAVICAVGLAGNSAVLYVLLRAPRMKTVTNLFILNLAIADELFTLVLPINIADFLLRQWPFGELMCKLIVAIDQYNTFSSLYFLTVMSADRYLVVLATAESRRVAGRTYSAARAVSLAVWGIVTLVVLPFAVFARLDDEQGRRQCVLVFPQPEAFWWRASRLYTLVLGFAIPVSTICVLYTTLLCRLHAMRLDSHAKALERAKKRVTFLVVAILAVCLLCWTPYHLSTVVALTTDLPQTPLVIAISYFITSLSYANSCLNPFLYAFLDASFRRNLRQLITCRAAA

[12] = molecular target: T6, Apoptotic protease-activating factor 1 (Homo sapiens, UniProt O14727); experiment: SAR analysis of small molecule Activators of Apaf-1 in a Fluorescent assay.; details: read-out: EC50_Mean;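 further: caspase-3 cleavage of fluorogenic Rh110 DEVD substrate downstream of apoptosome activation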
T6 sequence (O14727 whole entry): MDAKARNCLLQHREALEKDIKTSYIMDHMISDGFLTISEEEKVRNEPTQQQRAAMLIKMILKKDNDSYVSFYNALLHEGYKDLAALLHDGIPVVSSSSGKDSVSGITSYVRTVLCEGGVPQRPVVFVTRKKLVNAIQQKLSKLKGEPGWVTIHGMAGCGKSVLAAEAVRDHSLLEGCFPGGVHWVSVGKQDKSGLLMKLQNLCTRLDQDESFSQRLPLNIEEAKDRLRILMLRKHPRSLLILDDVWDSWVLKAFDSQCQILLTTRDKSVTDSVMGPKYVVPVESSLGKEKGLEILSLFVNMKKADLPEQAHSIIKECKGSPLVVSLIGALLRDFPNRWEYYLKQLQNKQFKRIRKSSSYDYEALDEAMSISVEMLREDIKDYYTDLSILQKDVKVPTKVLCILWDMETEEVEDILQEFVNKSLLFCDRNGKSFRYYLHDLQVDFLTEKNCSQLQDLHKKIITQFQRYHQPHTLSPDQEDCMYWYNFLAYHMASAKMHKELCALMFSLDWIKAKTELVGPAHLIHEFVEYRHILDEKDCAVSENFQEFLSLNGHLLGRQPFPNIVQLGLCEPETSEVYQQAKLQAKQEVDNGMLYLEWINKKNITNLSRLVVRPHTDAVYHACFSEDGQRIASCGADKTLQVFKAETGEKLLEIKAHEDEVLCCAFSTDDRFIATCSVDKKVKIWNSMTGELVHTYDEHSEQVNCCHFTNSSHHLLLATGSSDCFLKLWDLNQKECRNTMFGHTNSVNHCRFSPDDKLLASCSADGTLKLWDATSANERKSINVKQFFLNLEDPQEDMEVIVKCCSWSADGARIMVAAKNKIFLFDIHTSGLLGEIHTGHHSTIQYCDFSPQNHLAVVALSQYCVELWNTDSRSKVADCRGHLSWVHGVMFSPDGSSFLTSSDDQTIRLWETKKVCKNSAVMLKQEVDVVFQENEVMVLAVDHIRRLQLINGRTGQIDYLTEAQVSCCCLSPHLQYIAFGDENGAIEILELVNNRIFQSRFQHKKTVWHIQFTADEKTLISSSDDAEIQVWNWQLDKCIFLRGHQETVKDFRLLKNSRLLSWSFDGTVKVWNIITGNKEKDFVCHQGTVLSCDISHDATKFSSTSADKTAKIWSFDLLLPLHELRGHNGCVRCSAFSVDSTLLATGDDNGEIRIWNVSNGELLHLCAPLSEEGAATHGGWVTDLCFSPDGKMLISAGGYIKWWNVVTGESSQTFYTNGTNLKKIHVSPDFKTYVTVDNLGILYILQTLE

Sequence of Aurora kinase B (Q96GD4 whole entry): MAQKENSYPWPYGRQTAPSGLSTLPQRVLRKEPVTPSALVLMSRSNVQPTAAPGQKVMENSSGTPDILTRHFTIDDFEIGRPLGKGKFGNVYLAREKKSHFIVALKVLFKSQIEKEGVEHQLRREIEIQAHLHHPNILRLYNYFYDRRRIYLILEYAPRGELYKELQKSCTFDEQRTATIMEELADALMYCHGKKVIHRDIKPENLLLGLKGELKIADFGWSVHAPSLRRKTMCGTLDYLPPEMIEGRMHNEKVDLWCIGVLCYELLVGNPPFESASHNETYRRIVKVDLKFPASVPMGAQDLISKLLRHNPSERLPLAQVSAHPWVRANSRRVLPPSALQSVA
Sequence of Aurora kinase A (O14965 whole entry): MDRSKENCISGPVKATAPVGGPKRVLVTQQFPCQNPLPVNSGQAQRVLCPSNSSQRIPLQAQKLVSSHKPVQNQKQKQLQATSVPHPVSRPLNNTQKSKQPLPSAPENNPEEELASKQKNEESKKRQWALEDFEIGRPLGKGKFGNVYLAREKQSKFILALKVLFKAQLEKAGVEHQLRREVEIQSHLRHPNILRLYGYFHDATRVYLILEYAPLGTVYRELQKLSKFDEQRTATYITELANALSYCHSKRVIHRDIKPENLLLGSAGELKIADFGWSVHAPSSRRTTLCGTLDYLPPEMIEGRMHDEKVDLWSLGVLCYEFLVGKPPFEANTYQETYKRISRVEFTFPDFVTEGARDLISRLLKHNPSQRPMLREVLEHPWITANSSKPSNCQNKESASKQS

SMILES | IC50 [3] | IC50 [4] | IC50 [6] | IC50 (Caspase-3 [7]) | IC50 (Caspase-3 [8]) | IC50 [9] | IC50 [10] | IC50 [11] | IC50 [2] | IC50 [5] | also measured
Cc1ccc(-c2nc3ccc(Br)cc3c(C(=O)O)c2CC(=O)O)cc1 |  |  |  |  |  |  |  |  |  |  | Ki (Aurora kinase A): 0.0794 µM (active); Ki (Aurora kinase B): 0.158 µM (active); Ki [1]: 0.501 µM (active)
CCCCc1ccc2nc(NC(=O)c3ccsc3)sc2c1 | 2.8 µM (active) | 1.9 µM (active) | 1.96 µM (active) | 5.28 µM (active) | 6.2 µM (active) | 1.84 µM (active) |  |  | 3.1 µM (active) | 1.8 µM (active) | 
COc1ccc(Oc2c(CO)cnn(Cc3cccc4ccccc34)c2=O)cc1 |  |  |  |  |  |  | 2.99 µM (active) | 2.99 µM (active) |  |  | 
CCOc1ccccc1NC(=O)CCS(=O)(=O)c1ccc2c(c1)oc(=O)n2C |  |  |  |  |  |  |  |  |  |  | EC50 [12]: > 100 µM (inactive)

More lines, main results first:

IC50 [3] | IC50 [4] | IC50 [6] | IC50 (Caspase-3 [7]) | IC50 (Caspase-3 [8]) | IC50 [9] | IC50 [10] | IC50 [11] | SMILES | IC50 [2] | IC50 [5] | also measured
49 µM (active) | 16 µM (active) | 14.9 µM (active) | 48.6 µM (active) | 52 µM (active) | 16.7 µM (active) |  |  | Cc1cccc(-c2nc(/C=C/c3ccccc3)no2)c1 | 48 µM (active) | 16.7 µM (active) | 
 |  |  |  |  |  | 1.07 µM (active) | 1.07 µM (active) | N#CC(c1cccs1)c1c(Cl)cnn(Cc2cccc3ccccc23)c1=O (centres undefined) |  |  | 
